How the values were obtained:
[1] = system: anti-αGal IgG and IgM antibodies; assay: In vitro mouse laminin ELISA: soluble oligosaccharides as neutralizers of anti-αGal antibodies; format: binding; details: serum pre-incubated with oligosaccharide 1 hour 37° C.; result in words
Source text: In vitro laminin ELISA evaluation of αGal oligosaccharides as neutralizers of anti-αGal antibodies. Mouse laminin is a basement membrane glycoprotein that expresses 50-70 oligosaccharides terminating in Galα1-3Gal, i.e., the αGal motif (Arumugham et al., 1986, Biochem. Biophys. Aeta 883:112). In this assay, immobilization of mouse laminin on microtiter plates serves as a capture ligand for anti-αGal antibodies. […] The example provides a method by which to determine the ability of αGal oligosaccharides and pharmaceutically acceptable derivative of the invention to bind to anti-αGal antibodies and to thereby remove these antibodies from the serum, neutralize anti-αGal antibodies, and/or target anti-αGal directed complement-mediated lytic attack to specific tissue or cell types. The example also provides a method by which the effectiveness of the methods of the invention can be evaluated and dosages determined.
Sera were mixed with serial dilutions of αGal oligosaccharides (αGal-CHO) at 37° C. for 1 hour, then added to mouse laminin-coated microtiter plates and incubated for 1 hour to allow binding. The microtiter plates were coated with 20 μg/mL mouse laminin in 50 mM NaHCO3 buffer, pH 9.5 at 4° C. overnight, blocked with SuperBlock solution (Pierce) for 2 hours, and then washed 3 times with SuperBlock solution. After washing excess serum away, bound IgG and IgM was measured by adding goat anti-human IgG (or IgM) conjugated to alkaline phosphatase and incubating for 1 hour, washing, and adding substrate (pNPP).

[2] = system: mouse endothelial cell line, MAE; format: cell-based; details: 240 min
[3] = system: pig kidney endothelial cell line, PK-15; format: cell-based; details: 240 min
Description: Sera were incubated with serial dilutions of αGal oligosaccharides at 37° C. for 1 hour, then added to αGal-expressing monolayers (pig kidney cells, PK-15) in Terasaki plates for 1 hour at 37° C. Cytotoxicity was mediated by either endogenous complement, or the sera were de-complemented (heat inactivated for 30 minutes at 56° C.) and exogenous (rabbit) complement was added. After washing away excess serum, the viable dye mix "live-dead" (calcein AM/ethidium homodimer (Molecular Probes Inc., Eugene Oreg.)) was added and monolayers were scored for viability by fluorescence microscopy.
The two xenotransplant baboons were outfitted with an indwelling catheter to the femoral vein to infuse compound and a catheter to the femoral artery for blood sampling. Following the transplant procedure, but just prior to providing circulatory access to the xenograft, the oligosaccharide was administered by i.v. pump through the catheter in a 15 min loading dose, followed by continuous 4 hour infusion to achieve 2.5 mM blood concentration (as determined by calculations presented in Table 2). […] Blood specimens collected for plasma were immediately centrifuged and the plasma withdrawn and stored frozen at -20° C. […] Arterial pressure was monitored in the recipient baboon by intermittent automatic cuff recordings.

anti-αGal antibody = assay: ELISA of reactive anti-αGal antibody in sera of xenotransplanted baboons; format: binding, baboon; details: period during which serum concentration exceeded 1 mM; data not shown
Description: The two xenotransplant baboons were outfitted with an indwelling catheter to the femoral vein to infuse compound and a catheter to the femoral artery for blood sampling. Following the transplant procedure, but just prior to providing circulatory access to the xenograft, the oligosaccharide was administered by i.v. pump through the catheter in a 15 min loading dose, followed by continuous 4 hour infusion to achieve 2.5 mM blood concentration (as determined by calculations presented in Table 2). […] Blood specimens collected for plasma were immediately centrifuged and the plasma withdrawn and stored frozen at -20° C. Blood specimens collected for serum were clotted at 4° C. overnight and the withdrawn serum frozen at -20° C. The αGal pentasaccharide was prepared according to the enzymatic methods set forth in example 6.2 and stored as a dry, white, solid powder. The oligosaccharide was dissolved in 250 mL sterile infusion grade saline to a concentration of 0.154 g/mL, or 177 mM. Induction anesthesia was with ketamine hydrochloride 5 mg/kg/body weight in and 0.5 mg/kg of xylazine iv. Intravenous fluid of approximately 20 ml/kg body weight was given during the course of the operative procedure through either a peripheral or central vein. Atropine 0.5 mg/kg was given iv. […] Arterial pressure was monitored in the recipient baboon by intermittent automatic cuff recordings. […]

Compound: CC(=O)N[C@H]1[C@H](O[C@H]2[C@@H](O)[C@@H](CO)O[C@@H](O[C@H]3[C@H](O)[C@@H](O)C(O)O[C@@H]3CO)[C@@H]2O)O[C@H](CO)[C@@H](O[C@@H]2O[C@H](CO)[C@H](O)[C@H](O[C@H]3O[C@H](CO)[C@H](O)[C@H](O)[C@H]3O)[C@H]2O)[C@@H]1O (stereo partly shown) [αGal pentasaccharide, Galα1-3Galβ1-4GlcNAcβ1-3Galβ1-4Glc]
- Inhibition of anti-αGal IgG and IgM antibody binding to immobilized mouse laminin [1]: slightly better inhibitor of both IgG and IgM binding to laminin than αGal disaccharide
- Reduction of cytotoxicity of baboon sera against MAE cells [2]: 100%
- Reduction of cytotoxicity of baboon sera against PK-15 [3]: 85-95%
- Reactive anti-αGal antibody titer by ELISA (mouse laminin, α-Gal-albumin neoglycoconjugates, PK-15 cells) (anti-αGal antibody): pronounced reduction in the anti-αGal antibody titer
